Legend:
[1] = tested on: DC-3F, K-562 and Lewis Lung Carcinoma cells; experiment: Hypothetical sonoporation in vitro, MTT assay; assay type: cell-based, Chinese hamster, human, murine
Description: Three cell lines are used for in vitro experiments, DC-3F, a transformed Chinese hamster lung fibroblast cell line; K-562, a human leukemia cell line; and Lewis Lung Carcinoma, a murine lung carcinoma cell line. All cell lines are tested for mycoplasma. Cells are maintained in RPMI 1640 culture medium with 10% fetal calf serum, penicillin and streptomycin at 37° C. and 5% CO2. After harvesting, cells are washed and diluted in HEPES buffer containing 10 mM HEPES, 250 mM sucrose and 1 mM MgCl2 in sterile. The cell suspension with 0, 0.5, 1 and 3 mM CaCl2 is added to a sample tube which is placed in the ultrasound exposure chamber and exposed to low-frequency ultrasound at room temperature. A function generator is programmed to provide a wave of selected voltage, duty cycle, burst length, and total exposure time.
After 20 min at 37° C. and 5% CO2 cells are diluted in RPMI 1640 culture medium with 10% fetal calf serum and penicillin-streptomycin and seeded in 96-well plates at a concentration of 3.1×10^4 cells/100 μl.
Difference between cells treated with and without ultrasound in identical buffer is assessed using two-way analysis of variance CANOVA) with post least-squares-means test with Bonferroni correction for multiple comparisons.

[2] = tested on: MDA-MB231 (human breast cancer) tumors; experiment: Fraction of necrosis after calcium electroporation, MDA-MB231 tumors; assay type: in vivo, NMRI-Foxn1^nu mice
Description: LPB, a murine sarcoma cell line, B16, a murine malignant melanoma cell line, MDA-MB231, human a breast cancer cell line, HT29, a human colon cancer cell line, and SW780, a human bladder cancer cell line were used for the in vivo experiment. The cells were tested by rapid MAP27 panel (Taconic, Hudson N.Y.) before use without signs of infection. 2×10^5 cells (B16), 8×10^5 cells (LPB), 2.5×10^6 cells (MDA-MB231), and 5×10^6 cells (HT29 and SW780) in 100 μl PBS were injected subcutaneously in the flank of NMRI-Foxn1^nu mice (Harlan, Indianapolis, Ind.) that were 9-11 weeks old. Mice were randomised at a tumor volume above 85 mm^3 and tumors were treated with injection of isotonic calcium-chloride solution (168 mM CaCI2) and electroporation (8 pulses of 1.0 kv/cm for 100 μs and a frequency of 1 Hz) using a 6 mm plate electrode and a square wave electroporator (CLINIPORATOR®, IGEA, Modena, Italy). Tumor volume was calculated as ab^2n/6, where a is the largest diameter and b is the largest diameter perpendicular to a. The injected volume was half of the tumor volume. […] The fraction of necrosis within the tumor was estimated from HE-sections by stereological point counting using a light microscope, evaluated by a pathologist, blinded with respect to treatment status.
The difference in fraction of necrosis at different time after treatment was assessed using student's t-test.

[3] = tested on: H69 (human small cell lung cancer) tumors; experiment: Hypothetical volume test of injected solution; assay type: in vivo, NMRI-Foxn1^nu mice; conditions: with electroporation
Description: H69, a human small cell lung cancer cell line stably transfected with EGFP regulated by the cytomegalo-virus (CMV) promoter, is used for the in vivo experiments. The cells are tested by rapid MAP27 panel (Taconic, Hudson N.Y.) before use without signs of infection. Cells are maintained in vitro as described in Example 1. 1.5×10^6 cells/100 μl PBS are injected subcutaneously in both flanks of NMRI-Foxn1^nu mice (Harlan, Indianapolis, Ind.) that are 9-11 weeks old. Tumor pieces are transplanted from donor mice to the right flank of nude mice. HYPNORM™-DORMICUM™ (fentanyl/fluanisone/midazolam; VetaPharma, Leeds, U K and Roche, Basel, Switzerland) is used for anesthesia complemented with RIMADYL® (Carprofen) (Pfizer ApS, Ballerup, Denmark) […] as lidocaine (Region Hovedstadens Apotek, Herlev, Denmark) in the incision. […] Tumor volume is calculated as ab^2n/6, where “a” is the largest diameter and “b” is the largest diameter perpendicular to “a”. […] Background fluorescence is measured on the opposite flank and then the background fluorescence level is subtracted from fluorescence intensity of tumors. Finally, all fluorescence intensity below 100 normalised counts (NC) is filtered away using ART, Saint-Laurent, Quebec OPTIX® Optiview version 2.02 software (ART, Saint-Laurent, Quebec).
The differences in tumor volume and fluorescence intensity between tumors injected with the different solution volumes in the 4 treatment groups are evaluated as repeated measurements, validated and analysed with an exponential decrease model with Bonferroni correction for multiple comparisons using SAS® software version 9.1 (SAS, Cary, N.C.). ‘Group’, ‘days’ and ‘mouse’ are considered as factors and baseline levels of tumor volume or fluorescence intensity are used as covariant.

[Ca+2].[Cl-].[Cl-] [calcium chloride]
cell death ([1]; with ultrasound, 0 to 3 mM calcium): dose dependent cell death | effect on cell viability ([1]; without ultrasound, high calcium concentrations): no effect on cell viability | fraction of necrosis in tumors, course ([2]; 168 mM CaCl2, half tumor volume, electroporation, first days after treatment): progressive necrosis | tumor re-growth ([2]; 6 days after the treatment): re-growth | tumors eliminated ([3]; volume ratio 0.2, 004, 0.6 or 0.8): eliminates most of the tumors | ulceration of treated tumors [3]: occurs in most | fluorescence intensity of tumors ([3]; all 4 injection volumes): decrease drastically

From US9943599B2, “Therapeutic applications of calcium electroporation to effectively induce tumor necrosis” (Herlev Hospital, priority 2011, dated 2018)
